In brackets after ≈: the same amount, converted by molar mass. Counter-ions that a name gives are not always drawn. Like-named read-outs stand apart in the source and are kept apart here.
Assays:
[1] = tested on: S.aureus (Sa); assay: Broth microdilution MIC against S.aureus (Sa); type: cell-based; conditions: Staphylococcus aureus
Description: (§1) A certified BSL-2 laboratory was used for testing. Compounds were evaluated using the broth microdilution minimum inhibitory concentration (MIC) and minimum bactericidal concentration (MBC) assays defined by Clinical and Laboratory Standards Institute (CLSI) in the M26-A guideline against S.aureus (Sa), E.coli (Ec), K.pneumoniae (Kp), A.baumannii (Ab), E.faecalis (Ef) and P.aeruginosa (Pa).
(§2) MICs were determined using the Clinical Laboratory and Standards Institute (CLSI) Broth Microdilution Method with slight modification. Clinical and Laboratory Standards Institute (2012). “Methods for dilution antimicrobial susceptibility tests for bacteria that grow aerobically; approved standard, 9th ed. M07-A9. Clinical and Laboratory Standards Institute, Wayne, PA.” Serial two-fold dilutions of compounds are prepared in sterile clear roundbottom 96-well plates.
(§3) To prepare microdilution trays, two-fold dilutions of antimicrobial agent are prepared in growth medium: Cation-Adjusted Mueller-Hinton Broth (CAMHB), or CAMHB supplemented with sodium bicarbonate (6.25 or 25 mM final concentration prepared from a 1.0 M stock solution) or CAMHB supplemented with heat inactivated human serum (Fisher Cat. # BP2657100) 0-50% by adding 200 µL of the highest concentration to be tested (64 µg/mL, for example) in row A, mixing and transferring 100 µL from row A to 100 µL growth medium in row B, then repeating the mixing and transferring through row H of the 96-well plate, discarding the excess 100 µL remaining. This slight modification to the CLSI protocol enables evaluation of MICs for 3 compounds per plate in triplicate, albeit with only 8 compound dilutions (CLSI protocol enables 2 compounds in triplicate with 10 dilutions). Bacterial suspensions are added to a final concentration of 5 × 10^4 CFU/well by adding 5 µL of a 1:10 dilution of a 0.5 McFarland suspension (1 × 10^8 CFU/mL) for each bacterium evaluated. Bacterial suspensions were prepared using the growth method described by CLSI. Well-isolated colonies (3-5 from an agar plate) were selected using a sterile loop and used to inoculate a tube containing 4 mL of CAMHB. The cultures are incubated at 35 ± 2° C. until it achieves or exceeds the turbidity of the 0.5 McFarland standard, determined by measuring A600nm (usually two to six hours). When growth exceeds a 0.5 McFarland standard, the turbidity is adjusted with broth to be equivalent to a 0.5 McFarland standard.

[2] = tested on: E.coli (Ec); assay: Broth microdilution MIC against E.coli (Ec); type: cell-based; conditions: Escherichia coli
Description: as §1, §2, §3

[3] = tested on: P.aeruginosa (Pa); assay: Broth microdilution MIC against P.aeruginosa (Pa); type: cell-based; conditions: Pseudomonas aeruginosa
Description: as §1, §2, §3

[4] = tested on: A.baumannii (Ab); assay: Broth microdilution MIC against A.baumannii (Ab); type: cell-based; conditions: Acinetobacter baumannii
Description: as §1, §2, §3

[5] = tested on: E.faecalis (Ef); assay: Broth microdilution MIC against E.faecalis (Ef); type: cell-based; conditions: Enterococcus faecalis
Description: as §1, §2, §3

[6] = tested on: E.coli S30 extract (bacterial protein synthesis); assay: E.coli S30 extract: inhibition of bacterial protein synthesis (luciferase); type: biochemical; conditions: 37° C. for 1 hour
Description: E.coli S30 extract: Inhibition of bacterial protein synthesis was determined using the E.coli S30 Extract System for Circular DNA (Promega catalog #L-2010) and Luciferase Assay Reagent (Promega catalog #E1500) with slight modifications to a published protocol. Fyfe, C., Sutcliffe, J.A. and Grossman, T.H. (2012) “Development and characterization of a Pseudomonas aeruginosa in vitro coupled transcription-translation assay system for evaluation of translation inhibitors” J. Microbiol. Methods 90(3), 256-261.
Compounds were serial diluted in 0.5 mL microcentrifuge tubes by mixing and transferring 50 µL from the highest concentration to 50 µL of water, mixing and transferring 50 µL of this 2-fold dilution to 50 µL of water. This mixing and transferring was repeated so that there are a total of 8 tubes with serial dilutions of compound at 10× the desired screening concentration that are ultimately diluted to 1× by the addition of S30 luciferase synthesis mixture. Serial dilutions of compounds were added (2 µL) to wells in a black round bottom 96-well plate. Water (2 µL) was used as a “no inhibitor” control in 4 wells/plate. No DNA control reaction mixture (20 µL; see below) was used as a control in 4 wells/plate for background luminescence. S30 luciferase synthesis mixture (18 µL; see below) was added to wells with compounds or water mixture and incubated at 37° C. for 1 hour. Reactions were stopped by transferring to 4° C. refrigerator for 5 minutes then 25 µL of luciferase activity mix was added. Luminescence was measured using a BioTek Synergy HTX plate reader. % Inhibition was determined relative to no inhibitor controls.
S30 luciferase synthesis mixture: • 445 µL S30 extract, circular • 712 µL S30 Premix without amino acids • 4.45 µL pBESTluc™ DNA (1 µg/ µL) • 78 µL complete amino acid mixture • 267 µL water
No DNA control: • 20 µL S30 extract, circular • 32 µL S30 Premix without amino acids • 7 µL complete amino acid mixture • 21 µL water

[7] = target: Rabbit Reticulocyte Lysate (eukaryotic protein synthesis); assay: Rabbit Reticulocyte Lysate: inhibition of eukaryotic protein synthesis (luciferase); type: biochemical; conditions: 30° C. for 90 minutes, read-out: retic. IC50
Description: Inhibition of eukaryotic protein synthesis was determined using the Rabbit Reticulocyte Lysate System, Nuclease-Treated from Promega (catalog #L-4960) with slight modifications to the manufacturer’s protocol. Compounds were serial diluted in 0.5 mL microcentrifuge tubes by mixing and transferring 50 µL from the highest concentration to 50 µL of water, mixing and transferring 50 µL of this 2-fold dilution to 50 µL of water. This mixing and transferring was repeated so that there are a total of 8 tubes with serial dilutions of compound at 10× the desired screening concentration that are ultimately diluted to 1× by the addition of rabbit reticulocyte luciferase synthesis mixture. Serial dilutions of compounds were added (2.5 µL) to wells in a black round bottom 96-well plate. Water (2.5 µL) was used as a “no inhibitor” control in 4 wells/plate. No RNA control reaction mixture (2 µL; see below) was used as a control in 4 wells/plate for background luminescence. Rabbit reticulocyte luciferase synthesis mixture (22.5 µL; see below) was added to wells with compounds or water mixture and incubated at 30° C. for 90 minutes. Luciferase assay reagent (25 µL) was added with luminescence measured using a BioTek Synergy HTX plate reader. % Inhibition was determined relative to no inhibitor controls.
Rabbit reticulocyte luciferase synthesis mixture: • 1,000 µL rabbit reticulocyte lysate • 5.7 µL Luciferase Control RNA (1 µg/ µL) • 26 µL complete amino acid mixture • 395 µL water
No RNA Control • 70 µL rabbit reticulocyte lysate • 2 µL complete amino acid mixture • 28 µL water

[8] = CAMHB supplemented with sodium bicarbonate 25 mM, read-out: Sa + bicarb 25 (MIC)
[9] = CAMHB supplemented with sodium bicarbonate 25 mM, read-out: E.coli + bicarb 25 (MIC)
[10] = CAMHB supplemented with sodium bicarbonate 25 mM, read-out: Pa +bicarb 25 (MIC)
[11] = CAMHB supplemented with sodium bicarbonate 25 mM, read-out: Ab +bicarb 25 (MIC)
[12] = CAMHB supplemented with sodium bicarbonate 25 mM, read-out: Ef +bicarb 25 (MIC)
[13] = CAMHB supplemented with sodium bicarbonate 6.25 mM, read-out: Sa + bicarb 6.25 (MIC)
[14] = CAMHB supplemented with sodium bicarbonate 6.25 mM, read-out: E. coli + bicarb 6.25 (MIC)
[15] = CAMHB supplemented with sodium bicarbonate 6.25 mM, read-out: Pa +bicarb 6.25 (MIC)
[16] = CAMHB supplemented with sodium bicarbonate 6.25 mM, read-out: Ab +bicarb 6.25 (MIC)
[17] = CAMHB supplemented with sodium bicarbonate 6.25 mM, read-out: Ef +bicarb 6.25 (MIC)

Compound	IC50 [6] [µM]	IC50 [7] [µM]	MIC [1, 8] [µg/mL]	MIC [2, 9] [µg/mL]	MIC [3, 10] [µg/mL]	MIC [4, 11] [µg/mL]	MIC [5, 12] [µg/mL]	MIC [1, 13] [µg/mL]	MIC [2, 14] [µg/mL]	MIC [3, 15] [µg/mL]	MIC [4, 16] [µg/mL]	MIC [5, 17] [µg/mL]	also measured
CC(C)(N)C(=O)N1CCN(C(=O)Nc2ccn(-c3ccc4c(c3)CCC(N(CC3CC3)[C@H]3CC[C@H](N)CC3)C4)c(=O)n2)CC1 (stereo partly drawn) [Compound 17, 4-(2-Amino-2-methylpropanoyl)-N-(1-(6-(((trans)-4-aminocyclohexyl)(cyclopropylmethyl)amino)-5,6,7,8-tetrahydronaphthalen-2-yl)-2-oxo-1,2-dihydropyrimidin-4-yl)piperazine-1-carboxamide hydrochloride salt]	0.5 to 1	≥ 1	–	–	–	–	–	–	–	–	–	–	MIC ([1]; read-out: Sa + bicarb 25 (MIC)): < 8 µg/mL; MIC ([2]; read-out: E.coli + bicarb 25 (MIC)): < 8 µg/mL; MIC ([3]; read-out: Pa +bicarb 25 (MIC)): 8 to 32 µg/mL; MIC ([4]; read-out: Ab +bicarb 25 (MIC)): 8 to 32 µg/mL; MIC ([5]; read-out: Ef +bicarb 25 (MIC)): < 8 µg/mL
CC(C)(N)C(=O)N1CCN(C(=O)Nc2ccn(-c3ccc4c(c3)OCC(N3CC[C@H](CN)C3)C4)c(=O)n2)CC1 (stereo partly shown) [Compound 18]	≥ 1	≥ 1	< 8	< 8	8 to 32 (≈ 14.9 to 59.4 µM)	8 to 32 (≈ 14.9 to 59.4 µM)	8 to 32 (≈ 14.9 to 59.4 µM)	–	–	–	–	–	–
CN(C1CCc2cc(-n3ccc(NC(=O)N4CCN(C(=O)C(C)(C)N)CC4)nc3=O)ccc2C1)[C@H]1CC[C@H](N)C1 (stereo partly shown) [Compound 19, Hydrochloride Salt]	< 0.5	≥ 1	< 8	< 8	8 to 32	8 to 32	< 8	–	–	–	–	–	–
CCN(C1CCc2cc(-n3ccc(NC(=O)N4CCN(C(=O)C(C)(C)N)CC4)nc3=O)ccc2C1)[C@H]1CC[C@H](N)C1 (stereo partly shown) [Compound 20]	< 0.5	≥ 1	< 8	< 8	8 to 32 (≈ 14.2 to 56.7 µM)	8 to 32 (≈ 14.2 to 56.7 µM)	< 8	–	–	–	–	–	–
CC(C)(N)C(=O)N1CCN(C(=O)Nc2ccn(-c3ccc4c(c3)CCC(N(CC3CC3)[C@H]3CC[C@H](N)C3)C4)c(=O)n2)CC1 (stereo partly shown) [Compound 21]	< 0.5	≥ 1	< 8	< 8	8 to 32 (≈ 13.5 to 54.2 µM)	8 to 32 (≈ 13.5 to 54.2 µM)	< 8	–	–	–	–	–	–
CC(C)(N)C(=O)N1CCN(C(=O)Nc2ccn(-c3ccc4c(c3)OCC(N3CCCC(N)CC3)C4)c(=O)n2)CC1 (stereo not shown) [Compound 22]	0.5 to 1	≥ 1	–	–	–	–	–	8 to 32	< 8	> 32	> 32	> 32	–
CC(C)(N)C(=O)N1CCN(C(=O)Nc2ccn(-c3ccc4c(c3)OCC(N3CC5CC5(CN)C3)C4)c(=O)n2)CC1 (stereo not shown) [Compound 23]	≥ 1	≥ 1	–	–	–	–	–	> 32	8 to 32	> 32	> 32	> 32	–
CC(C)(N)C(=O)N1CCN(C(=O)Nc2ccn(-c3ccc4c(c3)CCC(N[C@@H]3CC[C@@H](N)C3)C4)c(=O)n2)CC1 (stereo partly shown) [Compound 25]	< 0.5	≥ 1	–	–	–	–	–	–	–	–	–	–	MIC ([1]; read-out: Sa + bicarb 6.25 (MIC)): < 8 µg/mL; MIC ([2]; read-out: E. coli + bicarb 6.25 (MIC)): < 8 µg/mL; MIC ([3]; read-out: Pa +bicarb 6.25 (MIC)): > 32 µg/mL; MIC ([4]; read-out: Ab +bicarb 6.25 (MIC)): > 32 µg/mL; MIC ([5]; read-out: Ef +bicarb 6.25 (MIC)): > 32 µg/mL
CC(C)(N)C(=O)N1CCN(C(=O)Nc2ccn(-c3ccc4c(c3)CCC(N[C@H]3CC[C@@H](N)C3)C4)c(=O)n2)CC1 (stereo partly shown) [Compound 26]	< 0.5	≥ 1	–	–	–	–	–	< 8	< 8	> 32	> 32	> 32	–
CC(C)(N)C(=O)N1CCN(C(=O)Nc2ccn(-c3ccc4c(c3)CCC(N[C@H]3C[C@H](N)C3)C4)c(=O)n2)CC1 (stereo partly shown) [Compound 29]	< 0.5	≥ 1	–	–	–	–	–	< 8	< 8	> 32	> 32	8 to 32 (≈ 15.3 to 61.2 µM)	–
CC(C)(N)C(=O)N1CCN(C(=O)Nc2ccn(-c3ccc4c(c3)CCC(N[C@H]3C[C@@H](N)C3)C4)c(=O)n2)CC1 (stereo partly drawn) [Compound 30, 4-Amino-2-Methylpropanoyl)-N-(1-(6-(((Cis-3-Aminocyclobutyl)Amino)-5,6,7,8-Tetrahydronaphthalen-2-Yl)-2-Oxo-1,2-Dihydropyrimidin-4-Yl)Piperazine-1-Carboxamide Hydrochloride Salt]	< 0.5	≥ 1	–	–	–	–	–	< 8	< 8	> 32	> 32	8 to 32	–
CC(C)(N)C(=O)N1CCN(C(=O)Nc2ccn(-c3ccc4c(c3)CCC(NC[C@H]3C[C@H](N)C3)C4)c(=O)n2)CC1 (stereo partly shown) [Compound 31]	< 0.5	≥ 1	–	–	–	–	–	< 8	< 8	> 32	> 32	8 to 32 (≈ 14.9 to 59.6 µM)	–
CC(C)(N)C(=O)N1CCN(C(=O)Nc2ccn(-c3ccc4c(c3)CCC(NC[C@H]3C[C@@H](N)C3)C4)c(=O)n2)CC1 (stereo partly shown) [Compound 32]	< 0.5	≥ 1	–	–	–	–	–	< 8	< 8	> 32	> 32	8 to 32 (≈ 14.9 to 59.6 µM)	–
